Columns and labels:
Format in all cases: cell-based
[1] = test system: Staphylococcus aureus, Pseudomonas aeruginosa, Escherichia coli; experiment: Preservative efficacy test (Pharmacopée Française), bactericidal effect
Description: (§1) The inventors thus tested the bactericidal and/or fungicidal activity of α-alkylglucoside and α-alkylglucoside ester type compounds to determine the conditions, in particular the concentrations, under which said compounds have to be used for the desired activities to be obtained. The results of these tests were analysed in accordance with the “Pharmacopée Françcaise” which describes a methodology for monitoring the efficacy of antimicrobial preservation agents in pharmaceutical preparations and establishes minimum efficacy criteria as a function of the administration routes of a medicine. Thus specific criteria are fixed for topical patent medicines which can be considered to be close to cosmetic products in their conception. The recommended and significant criteria for bactericidal and/or fungicidal activity of a product are:
for a bactericidal effect (Staphylococcus aureus, Pseudomonas aeruginosa, Escherichia coli):
reduction of 3 logarithmic units in 14 days with respect to the initial population;
no increase in microbial growth after 14 days and up to the 28th day, when the test is stopped;
(§2) In order to facilitate visualisation of the bactericidal or fungicidal effect of the tested compounds, the results obtained were transcribed into the graphical forms of FIG. 5 which show the reduction in the number of germs in logarithmic units, over time (1 day, 7 days, 14 days, 21 days, 28 days).

[2] = test system: Candida albicans, Aspergillus niger; experiment: Preservative efficacy test (Pharmacopée Française), fungicidal effect (yeasts and moulds); conditions: concentrations of 1% to 3%
Description: as §1
(§3) for a fungicidal effect (yeasts and moulds) (Candida albicans, Aspergillus niger):
(§4) reduction of one logarithmic unit in 14 days with respect to the initial population;
(§5) no increase in microbial growth after 14 days and up to the 28th day, when the test is stopped.
as §2

[3] = test system: Aspergillus niger; experiment: Preservative efficacy test (Pharmacopée Française), fungicidal effect on Aspergillus niger; conditions: concentration of 5%
Description: as §1, §3, §4, §5, §2

## CCCCO[C@H]1O[C@H](CO)[C@@H](O)[C@H](O)[C@H]1O [α-BG, α-butylglucoside]
[1]; concentrations above 1%
  compliance with bactericidal standards of the Pharmacopée Française: corresponds to the bactericidal standards
[1]; concentrations above 1% (1% to 5%), after 14 days
  logarithmic reduction (bactericidal effect): more than 3 logarithmic units
[1]; concentrations above 1%, after 14 days
  increase in the number of strains after 14 days: no subsequent increase in the number of strains
[1]; concentrations of less than 0.8%
  reduction in the number of germs: small reduction in the number of germs
[2]
  compliance with fungicidal standards: satisfy the fungicidal standards
[3]
  fungicidal activity on Aspergillus niger at 5% versus lower concentrations: less active than at lower concentrations
